Laboratory results: US20070155786A1, “Methods for treating oral aphthous stomatitis and oral mucositis” (priority 2004, published 2007)
Where a name gives a salt, the structure may show the parent alone.

Legend:
Type in all cases: in vivo, human
[1] = tested on: oral aphthous stomatitis and oral mucositis; assay: General statements on treating oral aphthous stomatitis and oral mucositis in patients
Excerpt: In experiments carried out with particular preferred compounds of the invention, the pain caused by ulcerative lesions disappeared often within hours, and the ulcers and other symptoms disappeared usually within days. For example, patients with life-long recurrent aphthae problems achieved quick relief of pains caused by aphthae ulcers after rinsing their mouth with aqueous solutions comprising said compounds. The effect is often enhanced when said quinoline derivative is used together with an antiseptic.
Quinine at levels up to 83 ppm is approved by FDA for use in beverages as a flavoring agent.
In other preferred embodiment of this invention, oral mucositis is treated by a quinine (Q) salt in solution or suspension, which is used several times a day for rinsing mouth without swallowing, followed by rinsing with chlorhexidine solution. The concentration of Q is preferably about 0.083 mg/ml, and chlorhexidine solution has preferably a concentration from 0.05% to 0.2%. The rinsing with each of the two components is preferably performed 3-5 times a day. Said Q solution may comprise Q dihydrochloride, Q hydrochloride, Q sulfate, and other Q salts. Said Q suspension may, for example, comprise Q sulfate. Stereoisomers of quinine and their salts, such as quinidine sulfate, have been also found active.

erosive lichen planus = assay: Case report: rinse and swallow of quinine solution in a patient with erosive lichen planus
Excerpt: (§1) Hydroxychloroquine (HCQ) was obtained from Sanofi-Syntelabo, Inc. New York USA, quinine (Q) and quinidine sulfate were obtained from Rakah, Holon, Israel. The compounds were mixed with tap water. Chlorhexidine was obtained from LACER S.A., Barcelona, Spain.
A person presented diffuse erosions/ulcerations of the buccal, labial and lingual mucosae that were present for at least 6 months. They complained of pain and difficulty to eat and speak. The erosive/ulcerative lesions were clinically specific for erosive lichen planus. They started to rinse (for 5 to 10 min) and swallow about 10- 20 ml of 0.085 mg/ml quinine solution, 5 to 7 times a day. […] They were able to maintain a stable asymptomatic condition of their lichen planus by means of quinine solution during about 1 year follow-up period.

aphtha (canker sores) = assay: Case reports: mouth rinses with a quinoline derivative solution in patients with aphthae
Excerpt: as §1
A person, generally in good health, reported the presence of canker sores for several years (periodic recurrences of 3 to 4 episodes per year). […] The patient was seen five days after the appearance of the painful aphtha. They started oral rinses with 10 ml of hydroxychloroquine (HCQ) solution, 3.7 mg/ml, three times a day, each rinse for 3 to 5 min. […] They continued to rinse for about a week. No additional aphthous lesions appeared during 8 weeks of follow-up.
A person, in otherwise general good health, came with two painful major aphthae, one of 12 mm diameter on the left side of the lower lip mucosa and the second on the right latero-ventral side of the tongue, about 8 mm diameter. They reported the presence of recurrent aphthous lesions since they were […]. During the last year, they continuously suffered from recurrent episodes of major aphthae, with virtually no aphtae-free intervals. Each episode of aphthae usually lasted for 3 to 6 weeks. They started oral rinses with 10 ml of HCQ solution, 3.7 mg/ml, three times a day, each rinse for 3 to 5 min. […] Concomitantly, 2 new lesions of minor aphthae, 3 mm in diameter each, were seen, one on the left side of the upper lip mucosa and the other on the ventro-anterior side of the tongue. […] In total, they rinsed with the HCQ solution for 20 days.
A child, in otherwise general good health, reported the presence of recurrent aphthous lesions of different sizes for the last 2 years. The last episode had been about 3 months before examination. The lesions had disappeared within 2 weeks after using different conventional treatments. At clinical examination, one aphtha of about 3 mm diameter was found on the lower lip mucosa and another one about 6 mm diameter was found on the upper lip mucosa. Both lesions were painful. They started rinsing with 10 ml of HCQ solution, 2.5 mg/ml, three times a day, each rinse for 3 to 5 min. […] They reported to be free of any pain already after 24 hours from the start of rinsing. […], therefore, was able to eat everything. The patient was advised to continue rinsing with 10 ml of hydroxychloroquine (HCQ) solution, 3.7 mg/ml, three times a day, each rinse for 3 to 5 min for 7 additional days. […] They still continued with the rinses for 5 additional days, as recommended.
A person reported suffering from recurrent episodes of canker sores for many years, with 2 to 3 episodes per year. The last episode had occurred about 6 months before examination. They were diagnosed with diabetes mellitus, so that use of steroidal modalities for treatment of their aphthous lesions was contraindicated. […] They started rinsing with 10 ml of HCQ solution, 1.2 mg/ml, three times a day, each rinse for 3 to 5 min. After 24 hours from start of rinses they were free of any pain and was able to eat everything. […] They remained aphthae-free for 7 months.
A person, generally in good health, reports the presence of canker sores since childhood with about 8 to 10 recurrences per year. At clinical examination a minor painful aphtha was present on the mucosa of the lower lip. The ulcer was about 4-5 mm in diameter and was present for 8 days. […] They started to rinse with 10 ml of hydroxychloroquine (HCQ) solution, 1.2 mg/ml, three times a day, each rinse for 3 to 5 min.
A person presented a painful minor aphtha of about 3 mm in diameter in the right vestibulum of the lower jaw adjacent to the first molar. They reported the presence of pain and inconvenience for 2 days. In the past, they had experienced recurrences of such lesions every 3 to 4 months. They started to rinse with 10 ml of 0.085 mg/ml quinine solution for 3 to 5 minutes, about 5 to 7 times a day. […]

aphtha = assay: Case reports: rinse with quinoline derivative solution followed by chlorhexidine rinse in patients with aphthae
Excerpt: as §1
A person, generally in good health, presented a most painful, distressing major aphtha of approximately 1 cm diameter on the ventro-lateral tongue. They had suffered the presence of such lesions for several years (recurrences of 6 to 8 episodes per year). The current lesion had been present for about one week. During examination 2 lymph nodes were palpated in the floor of mouth, probably due to a secondary infection. They started to apply a rinse with 3.72 mg/cc HCQ solution (for 3 to 5 minutes) followed by a rinse with 0.12% chlorhexidine alcohol free solution (for about 1 minute), 3 times a day. Two days later, the patient was totally free of pain and the size of the aphtha diminished to about 7 mm diameter.
A person, presented a painful minor aphtha on the ventro-lateral part of the tongue. They reported its appearance about 1 week ago. In the past, frequent episodes of minor aphthae had occurred every 2 months. They started to rinse with 10 ml of quinine sulfate Solution 3 mg/cc (for 3 to 5 minutes) followed by a rinse with 0.12% chlorhexidine alcohol free solution (for about 1 minute), 3 times a day.

[2] = Example 7: 0.085 mg/ml quinine solution, rinse and swallow
[3] = Example 2: HCQ solution 3.7 mg/ml
[4] = Example 2: HCQ solution 3.7 mg/ml, three times a day
[5] = Example 3: HCQ solution 2.5 mg/ml, three times a day

SMILES: C=C[C@H]1C[N@@]2CC[C@H]1C[C@H]2[C@H](O)c1ccnc2ccc(OC)cc12 [quinine]
- outcome in patients with major aphtha accompanied by a secondary infection ([1]; mouth rinsing with 0.083 mg/ml of quinine, and optionally chlorhexidine, several minutes, several times a day): relief of pains and healing
- erosive/ulcerative lesions after about 4 weeks (erosive lichen planus; [2]): marked healing
- symptoms of the lesions after about 4 weeks (erosive lichen planus; [2]): completely asymptomatic
- follow-up period with stable asymptomatic condition of lichen planus (erosive lichen planus; Example 7: maintained by quinine solution): about 1 year
- pain and masticatory function after 3 days (erosive lichen planus; Example 7: person, rinse (5 to 10 min) and swallow 10-20 ml of 0.085 mg/ml quinine solution, 5 to 7 times a day): significant amelioration
- time until ulcer healed completely (aphtha (canker sores); Example 6: 0.085 mg/ml quinine solution, 5 to 7 times a day): ≤ 4 days
- time until pain and inconvenience disappeared (aphtha (canker sores); Example 6: person, minor aphtha about 3 mm, 10 ml 0.085 mg/ml quinine solution, 3 to 5 minutes, 5 to 7 times a day): 2 days
- follow-up with no further recurrences (aphtha (canker sores); Example 10: 0.085 mg/ml quinine solution): about 6 months
- time until disappearance of the aphtha (aphtha (canker sores); Example 10: 0.085 mg/ml quinine solution, rinse and swallow): about 4 days
- time until free of any symptoms (aphtha (canker sores); Example 10: person, minor aphtha about 4 mm, 10 ml 0.085 mg/ml quinine solution, about 5 times per day, rinse 3 to 5 min and swallow): ≤ 24 h

SMILES: C=C[C@H]1C[N@@]2CC[C@H]1C[C@@H]2[C@@H](O)c1ccnc2ccc(OC)cc12 [quinidine sulfate]
- activity in treating oral mucositis ([1]; general statement): active

SMILES: C=C[C@H]1C[N@@]2CC[C@H]1C[C@H]2[C@H](O)c1ccnc2ccc(OC)cc12 [quinine sulfate]
- time until pain decreased significantly (aphtha; Example 9: person, minor aphtha, 10 ml quinine sulfate solution 3 mg/cc followed by 0.12% chlorhexidine rinse, 3 times a day): ≤ 24 h
- time until all the inconvenience disappeared (aphtha; Example 9: quinine sulfate solution 3 mg/cc followed by 0.12% chlorhexidine rinse, 3 times a day): ≤ 48 h

SMILES: CCN(CCO)CCCC(C)Nc1ccnc2cc(Cl)ccc12 (centres unmarked) [HCQ, Hydroxychloroquine]
- diameter of the aphtha two days later (initially approximately 1 cm) (aphtha; Example 8: 3.72 mg/cc HCQ rinse followed by 0.12% chlorhexidine rinse, 3 times a day): about 7 mm
- state of the aphtha after 2 additional days of treatment (aphtha; Example 8: 3.72 mg/cc HCQ rinse followed by 0.12% chlorhexidine rinse, 2 + 2 days): completely disappeared
- time until totally free of pain (aphtha; Example 8: person, major aphtha approx. 1 cm, probable secondary infection, 3.72 mg/cc HCQ rinse followed by 0.12% chlorhexidine rinse, 3 times a day): Two
- follow-up without additional aphthous lesions (aphtha (canker sores); Example 1: HCQ solution 3.7 mg/ml, rinsed about a week): 8 weeks
- state of the aphtha 24 hours after start of treatment (aphtha (canker sores); Example 1: minor aphtha, HCQ solution 3.7 mg/ml, three times a day): almost disappeared
- time after start of treatment until free of any pain (aphtha (canker sores); Example 1: person, minor aphtha, rinses 10 ml HCQ solution 3.7 mg/ml, three times a day, 3 to 5 min): Twenty-four
- new minor aphtha (3 mm) on the lip after 4 more days of rinsing (aphtha (canker sores); [3]): diminished significantly in its size
- new minor aphtha (3 mm) on the tongue after 4 more days of rinsing (aphtha (canker sores); [3]): disappeared
- pain from the two new minor aphthous lesions (aphtha (canker sores); [3]): did not cause any pain whatsoever
- follow up with no new aphthous lesions (aphtha (canker sores); Example 2: HCQ solution 3.7 mg/ml, rinsed 20 days in total): 3 months
- aphtha of the tongue (about 8 mm), 5 days later (aphtha (canker sores); [4]): completely disappeared
- major aphtha of the lower lip (12 mm), 5 days later (aphtha (canker sores); [4]): decreased in size to about half its original size
- major aphtha on the lower lip mucosa after 6 additional days (aphtha (canker sores); Example 2: HCQ solution 3.7 mg/ml, 5 + 6 days, left a pronounced scar): disappeared completely
- time after start of rinses until pain completely disappeared (aphtha (canker sores); Example 2: person, two major aphthae, 10 ml HCQ solution 3.7 mg/ml, three times a day, 3 to 5 min): 24 h
- diameter of aphtha on the lower lip after 5 days (initially about 3 mm) (aphtha (canker sores); [5]): about 1 mm
- time from start of rinsing until free of any pain (aphtha (canker sores); [5]): 24 h
- follow up after cessation of rinses without new aphthae (aphtha (canker sores); Example 3: HCQ solution 2.5 then 3.7 mg/ml): 5 weeks
- time until aphtha on the lower lip disappeared completely after continuing with 3.7 mg/ml (aphtha (canker sores); Example 3: after 5 days at 2.5 mg/ml, HCQ solution 3.7 mg/ml three times a day): ≤ 2 days
- lesion on upper lip (about 6 mm) after 5 days (aphtha (canker sores); Example 3: child, 10 ml HCQ solution 2.5 mg/ml, three times a day, 3 to 5 min): almost disappeared
- aphthae-free period (aphtha (canker sores); Example 4: HCQ solution 1.2 mg/ml): 7 months
- state of the aphtha after 7 days of rinsing (aphtha (canker sores); Example 4: HCQ solution 1.2 mg/ml, three times a day): almost disappeared
- time from start of rinses until free of any pain (aphtha (canker sores); Example 4: person, diabetes mellitus, major aphthous lesion about 8 mm, 10 ml HCQ solution 1.2 mg/ml, three times a day): 24 h
- follow up with no new aphthae (aphtha (canker sores); Example 5: HCQ solution 1.2 mg/ml): 4 months
- time until aphtha completely disappeared (aphtha (canker sores); Example 5: HCQ solution 1.2 mg/ml, three times a day): three
- time of rinses until no pain (aphtha (canker sores); Example 5: person, minor aphtha 4-5 mm, 10 ml HCQ solution 1.2 mg/ml, three times a day): one
